Data from ChEMBL document CHEMBL3885861, “Open TG-GATES”.

Species on record: Rattus norvegicus
Assay: Open TG-GATES - Regimen: Single
Type: toxicity, organism-based, Sprague-Dawley
Parameters: regimen Single, gender Male, age 6 weeks
Details: in vivo, po, 300 mg/kg, route gavage, dose level Middle; for APTT / Bas / Eos / Fbg / Hb / Ht / Lym / MCH / MCHC / MCV / Mono / Neu / PT / Plat / RBC / Ret / WBC: tissue Blood; for KIDNEY_L / KIDNEY_R / KIDNEY_TOTAL: tissue Kidney; for LIVER: tissue Liver; for ALP / ALT / AST / BUN / CRE / Ca / Cl / DBIL / GLC / IP / K / LDH / Na / PL / RALB / TBIL / TC / TG / TP / gamma-GTP: tissue Plasma

Compound: COC(=O)C1=C(C)NC(C)=C(C(=O)OC)C1c1ccccc1[N+](=O)[O-] [NIFEDIPINE]
- TERMINAL_BW (9 h): 206.1 g
- APTT (9 h): 17.3 s
- Bas (9 h): 0%
- Eos (9 h): 0.6%
- Fbg (9 h): 288 mg/dL
- Hb (9 h): 13.1 g/dL
- Ht (9 h): 39.7%
- Lym (9 h): 78.2%
- MCH (9 h): 21 pg
- MCHC (9 h): 33%
- MCV (9 h): 63.7 fL
- Mono (9 h): 3.6%
- Neu (9 h): 16.4%
- PT (9 h): 14.6 s
- Plat (9 h): 124.2 x10_4/uL
- RBC (9 h): 623 x10_4/ul
- Ret (9 h): 9.8%
- WBC (9 h): 94.7 x10_2/uL
- KIDNEY_L (9 h): 0.9 g
- KIDNEY_R (9 h): 0.9 g
- KIDNEY_TOTAL (9 h): 1.8 g
- LIVER (9 h): 7.3 g
- ALP (9 h): 1317.2 IU/L
- ALT (9 h): 51.2 IU/L
- AST (9 h): 76.6 IU/L
- BUN (9 h): 26.8 mg/dL
- CRE (9 h): 0.2 mg/dL
- Ca (9 h): 10.9 mg/dL
- Cl (9 h): 100.8 meq/L
- DBIL (9 h): 0.01 mg/dL
- GLC (9 h): 193.4 mg/dL
- IP (9 h): 11.1 mg/dL
- K (9 h): 5 meq/L
- LDH (9 h): 72.4 IU/L
- Na (9 h): 137.4 meq/L
- PL (9 h): 156.4 mg/dL
- RALB (9 h): 2.5 g/dL
- TBIL (9 h): 0.046 mg/dL
- TC (9 h): 91 mg/dL
- TG (9 h): 28.2 mg/dL
- TP (9 h): 5.4 g/dL
- gamma-GTP (9 h): 1 IU/L
- TERMINAL_BW (24 h): 198.5 g
- APTT (24 h): 16.6 s
- Bas (24 h): 0%
- Eos (24 h): 1%
- Fbg (24 h): 298.6 mg/dL
- Hb (24 h): 13.1 g/dL
- Ht (24 h): 40%
- Lym (24 h): 67%
- MCH (24 h): 20.4 pg
- MCHC (24 h): 32.7%
- MCV (24 h): 62.2 fL
- Mono (24 h): 3.6%
- Neu (24 h): 27%
- PT (24 h): 14.1 s
- Plat (24 h): 128.1 x10_4/uL
- RBC (24 h): 643.8 x10_4/ul
- Ret (24 h): 9%
- WBC (24 h): 95.9 x10_2/uL
- KIDNEY_L (24 h): 0.9 g
- KIDNEY_R (24 h): 0.9 g
- KIDNEY_TOTAL (24 h): 1.7 g
- LIVER (24 h): 7.8 g
- ALP (24 h): 1579.6 IU/L
- ALT (24 h): 43.8 IU/L
- AST (24 h): 68.4 IU/L
- BUN (24 h): 12 mg/dL
- CRE (24 h): 0.2 mg/dL
- Ca (24 h): 10.6 mg/dL
- Cl (24 h): 107.4 meq/L
- DBIL (24 h): 0.012 mg/dL
- GLC (24 h): 160.4 mg/dL
- IP (24 h): 8.3 mg/dL
- K (24 h): 3.9 meq/L
- LDH (24 h): 73.8 IU/L
- Na (24 h): 145 meq/L
- PL (24 h): 133.6 mg/dL
- RALB (24 h): 2.8 g/dL
- TBIL (24 h): 0.042 mg/dL
- TC (24 h): 77.8 mg/dL
- TG (24 h): 41.2 mg/dL
- TP (24 h): 5.8 g/dL
- gamma-GTP (24 h): 0.8 IU/L
